In paper PMC12123601, “Light-Induced, Lysine-Targeting Irreversible Covalent Inhibition of the Human Oxygen Sensing Hydroxylase Factor Inhibiting HIF (FIH)” (Journal of the American Chemical Society, 2025):

Key:
[1] = test system: EGLN3 mRNA level in Hep3B cells; assay: qRT-PCR of FIH-dependent HIF target gene EGLN3 in Hep3B cells; type: cell-based; conditions: for Upregulation of EGLN3 expression: absence of irradiation
Experimental: (§1) 5 […] sustainably engages with FIH and regulates the expression of FIH-dependent HIF target gene EGLN3 in Hep3B cells. (A) The CETSA assay was carried out with Hep3B cells grown in the presence of NBA-ZG-2291 (50 μM) for 12–48 h after 30 min of light activation (365 nm, 16 W). The intensity of the bands for grayscale analysis was referenced to the starting temperature (37 °C). α-Actinin was the sample loading control. n = 2; mean ± SD. […] (E) Correlation heatmap of the NBA-ZG-2291-treated group and the siFIH group by RNA-sequencing analysis. […] The relative fold change with respect to DMSO treated sample is shown (with normalization to HPRT gene levels). Mean ± SEM; n = 3. (G) TG level of NBA-ZG-2291-treated 3T3-L1-derived adipocytes. Mean ± SEM; n = 3. (H) Representative Oil Red O-stained images of the control, ZG-2291-treated, and NBA-ZG-2291-treated 3T3-L1-derived adipocytes. Scale Bar, 30 μm. P values were analyzed by two-way ANOVA comparing with the vehicle/control group (*, P < 0.05; **, P < 0.01; ***, P < 0.001, ****, P < 0.0001). See Methods (Quantitative PCR Analysis of Gene Expression) for assay details. TEXT PRINTED IN THE PICTURE: (A) no label printed: FIH: ΔTm (°C): 8.87 (Incubation time: 12 h); FIH: ΔTm (°C): 9.28 (Incubation time: 24 h); FIH: ΔTm (°C): 8.86 (Incubation time: 48 h); α-actinin: ΔTm (°C): 0.30 (Incubation time: 12 h); α-actinin: ΔTm (°C): -0.03 (Incubation time: 24 h); α-actinin: ΔTm (°C): -0.45 (Incubation time: 48 h) DOUBTS OF THE COPYIST ABOUT THIS PICTURE: Panel A: the picture prints no substance label with the ΔTm tables, so the label is left empty
The Egl-9 family hypoxia-inducible factor 3 gene (EGLN3, PHD3) is a HIF target gene, expression of which is negatively regulated by FIH catalysis, , potentially in a context-dependent manner. We therefore investigated the effect of the light-induced covalent inhibitor NBA-ZG-2291 on EGLN3 expression levels in Hep3B cells using ZG-2291 as a positive inhibition control. […] At a concentration of 10 μM, NBA-ZG-2291 increased EGLN3 expression by ∼2.5-fold with irradiation.
We also compared the time-dependent regulation of NBA-ZG-2291 on the HIF pathway with that of ZG-2291. […] This may result from the limited action time of the reversible inhibitor, perhaps due to its metabolism. The overall results provide strong evidence that the light-induced, lysine-targeting irreversible covalent inhibitor NBA-ZG-2291 can effectively and sustainably engage FIH, leading to the upregulation of FIH-dependent HIF target gene expression.

[2] = test system: EGLN3 expression in FIH knockdown Hep3B cells; assay: qRT-PCR of EGLN3 in FIH knockdown (siFIH) Hep3B cells; type: cell-based
Experimental: as §1, with “TEXT PRINTED IN THE PICTURE: (A) no label printed: FIH: ΔTm (°C): 8.87 (Incubation time: 12 h); FIH: ΔTm (°C): 9.28 (Incubation time: 24 h); FIH: ΔTm (°C): 8.86 (Incubation time: 48 h); α-actinin: ΔTm (°C): 0.30 (Incubation time: 12 h); α-actinin: ΔTm (°C): -0.03 (Incubation time: 24 h); α-actinin: ΔTm (°C): -0.45 (Incubation time: 48 h) DOUBTS OF THE COPYIST ABOUT THIS PICTURE: Panel A: the picture prints no substance label with the ΔTm tables, so the label is left empty” left out

O=C(O)CNC(=O)c1ncc(-c2cc(-c3ccc(CO)c([N+](=O)[O-])c3)no2)cc1O [NBA-ZG-2291]
Upregulation of EGLN3 ([1]; 0.3 μM, after 30 min light activation (365 nm, 16 W)): 1.35 fold
Upregulation of EGLN3 expression ([1]; 10 μM): did not result in significant upregulation
Increase of EGLN3 expression ([1]; 10 μM, with irradiation): ~2.5 fold
Upregulation of EGLN3 expression ([1]; 20 μM): very weak upregulation
Increase of EGLN3 expression, time course ([1]; maintained from 6 to 48 h, after 30 min irradiation): 2.5 fold
Effect on EGLN3 expression when FIH was knocked down [2]: no significant effect on EGLN3 expression
